Legend:
Assay in all cases: relative viability (nuclei count vs DMSO), 5 days (fraction); higher = more cells survive
BX 795 + Pemetrexed = compound: O=C(NCCCNc1nc(Nc2cccc(NC(=O)N3CCCC3)c2)ncc1I)c1cccs1 [BX 795] + Nc1nc2[nH]cc(CCc3ccc(C(=O)N[C@@H](CCC(=O)O)C(=O)O)cc3)c2c(=O)[nH]1 [Pemetrexed] (partner 0.2 µM)
How it was run: (§1)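 Five library-drug doses in √10 steps were combined with a fixed anchor-drug dose, or a single drug was given alone, by pin tool to lung cancer cell lines in 1536-well plates the day after seeding. Nuclei were stained and counted after 5 days. Relative viability is the nuclei count in treated wells over that in vehicle wells, taken as the median of duplicate plates.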

BX 795 + Luminespib = compound: O=C(NCCCNc1nc(Nc2cccc(NC(=O)N3CCCC3)c2)ncc1I)c1cccs1 [BX 795] + CCNC(=O)c1noc(-c2cc(C(C)C)c(O)cc2O)c1-c1ccc(CN2CCOCC2)cc1 [Luminespib] (partner 0.01 µM)
How it was run: as §1

BX 795 + Trametinib = compound: O=C(NCCCNc1nc(Nc2cccc(NC(=O)N3CCCC3)c2)ncc1I)c1cccs1 [BX 795] + CC(=O)Nc1cccc(-n2c(=O)n(C3CC3)c(=O)c3c(Nc4ccc(I)cc4F)n(C)c(=O)c(C)c32)c1 [Trametinib] (partner 0.02 µM)
How it was run: as §1

BX 795 + Alpelisib = compound: O=C(NCCCNc1nc(Nc2cccc(NC(=O)N3CCCC3)c2)ncc1I)c1cccs1 [BX 795] + Cc1nc(NC(=O)N2CCC[C@H]2C(N)=O)sc1-c1ccnc(C(C)(C)C(F)(F)F)c1 [Alpelisib] (partner 2 µM)
How it was run: as §1

BX 795 + Lapatinib = compound: O=C(NCCCNc1nc(Nc2cccc(NC(=O)N3CCCC3)c2)ncc1I)c1cccs1 [BX 795] + CS(=O)(=O)CCNCc1ccc(-c2ccc3ncnc(Nc4ccc(OCc5cccc(F)c5)c(Cl)c4)c3c2)o1 [Lapatinib] (partner 2 µM)
How it was run: as §1

Row | Cell Line | relative viability (BX 795 + Pemetrexed; first compound 0.04 µM) | relative viability (BX 795 + Pemetrexed; first compound 0.1265 µM) | relative viability (BX 795 + Pemetrexed; first compound 0.4 µM) | relative viability (BX 795 + Pemetrexed; first compound 1.265 µM) | relative viability (BX 795 + Luminespib; first compound 0.04 µM) | relative viability (BX 795 + Luminespib; first compound 0.1265 µM) | relative viability (BX 795 + Luminespib; first compound 0.4 µM) | relative viability (BX 795 + Luminespib; first compound 1.265 µM) | relative viability (BX 795 + Trametinib; first compound 0.04 µM) | relative viability (BX 795 + Trametinib; first compound 0.1265 µM) | relative viability (BX 795 + Trametinib; first compound 0.4 µM) | relative viability (BX 795 + Trametinib; first compound 1.265 µM) | relative viability (BX 795 + Alpelisib; first compound 0.04 µM) | relative viability (BX 795 + Alpelisib; first compound 0.1265 µM) | relative viability (BX 795 + Alpelisib; first compound 0.4 µM) | relative viability (BX 795 + Alpelisib; first compound 1.265 µM) | relative viability (BX 795 + Lapatinib; first compound 0.04 µM) | relative viability (BX 795 + Lapatinib; first compound 0.1265 µM) | relative viability (BX 795 + Lapatinib; first compound 0.4 µM) | relative viability (BX 795 + Lapatinib; first compound 1.265 µM)
1 | LOU-NH91 | 0.321 | 0.38 | 0.294 | 0.377 | 0.372 | 0.3 | 0.303 | 0.307 | 0.724 | 0.788 | 0.763 | 0.734 | 0.695 | 0.666 | 0.621 | 0.741 | 0.698 | 0.744 | 0.708 | 0.715
2 | LU99A | 0.148 | 0.197 | 0.128 | 0.209 | 0.288 | 0.278 | 0.226 | 0.294 | 0.558 | 0.484 | 0.41 | 0.278 | 0.541 | 0.445 | 0.482 | 0.222 | 1.05 | 1.03 | 0.714 | 0.665
3 | LXF-289 | 0.898 | 0.832 | 0.894 | 0.831 | 0.707 | 0.693 | 0.828 | 0.51 | 0.523 | 0.67 | 0.725 | 0.631 | 1.06 | 1.04 | 1.11 | 0.693 | 0.867 | 0.896 | 0.904 | 0.843
4 | NCI-H23 | 0.559 | 0.61 | 0.418 | 0.502 | – | 0.207 | 0.216 | 0.211 | 0.341 | 0.338 | 0.368 | 0.312 | 0.659 | 0.737 | 0.743 | 0.526 | 1.24 | 1.26 | 0.812 | 0.884
5 | NCI-H322M | 0.591 | 0.606 | 0.603 | 0.672 | 0.589 | 0.915 | 0.266 | 1.03 | 0.5 | 0.487 | 0.6 | 0.562 | 0.889 | 0.846 | 0.886 | 1 | 0.675 | 0.616 | 0.628 | 0.684
6 | NCI-H358 | 0.167 | 0.168 | 0.134 | 0.123 | 0.471 | 0.325 | 0.635 | 0.218 | 0.158 | 0.124 | 0.111 | 0.114 | 0.95 | 0.642 | 0.822 | 0.281 | 0.455 | 0.376 | 0.429 | 0.296
7 | NCI-H460 | 0.0535 | 0.0622 | 0.0597 | 0.0576 | 0.0385 | 0.0327 | 0.0422 | 0.0269 | 0.265 | 0.138 | 0.13 | 0.12 | 0.475 | 0.457 | 0.498 | 0.245 | 0.952 | 1.62 | 0.892 | 0.729
8 | NCI-H520 | 0.393 | 0.7 | 0.341 | 0.335 | 0.211 | 0.2 | 0.225 | 0.277 | 0.568 | 0.723 | 0.593 | 0.362 | 0.859 | 0.91 | 0.786 | 0.444 | 0.38 | 0.778 | 0.672 | 0.301
9 | NCI-H596 | 0.464 | 0.476 | 0.456 | 0.527 | 1.21 | 1 | 1.14 | 0.764 | 0.807 | 0.757 | 0.932 | 0.776 | 0.508 | 0.483 | 0.546 | 0.363 | 1.01 | 1.11 | 1.11 | 1.15
10 | NCI-H647 | 0.163 | 0.186 | 0.106 | 0.106 | 0.149 | 0.134 | 0.104 | 0.105 | 0.447 | 0.504 | 0.448 | 0.344 | 1.13 | 1.18 | 1.31 | 0.522 | 1.08 | 1.21 | 0.941 | 0.362
11 | NCI-H650 | 0.889 | 1.04 | 0.866 | 0.809 | 0.765 | 0.759 | 0.65 | 0.745 | 1.05 | 0.999 | 0.986 | 0.928 | 1.09 | 1.07 | 1.02 | 0.7 | 0.86 | 0.873 | 0.952 | 0.689
12 | NCI-H661 | 0.855 | 0.98 | 0.521 | 0.784 | 1 | 0.951 | 0.828 | 0.71 | 0.62 | 0.583 | 0.55 | 0.564 | 0.85 | 0.834 | 0.686 | 0.704 | 0.564 | 0.576 | 0.359 | 0.402
13 | NCI-H838 | 0.254 | 0.249 | 0.189 | 0.184 | 0.255 | 0.292 | 0.226 | 0.181 | 0.5 | 0.473 | 0.397 | 0.302 | 0.944 | 1.03 | 0.995 | 0.412 | 0.87 | 0.943 | 0.736 | 0.424
14 | NCI-H1355 | 0.798 | 0.977 | 1.09 | 1.01 | 0.721 | 0.787 | 0.874 | 0.579 | 0.427 | 0.344 | 0.44 | 0.362 | 0.833 | 0.808 | 0.914 | 0.781 | 1.05 | 0.976 | 1.11 | 0.946
15 | NCI-H1395 | 0.675 | 0.872 | 0.407 | 0.626 | 0.641 | 0.634 | 0.471 | 0.555 | 1.05 | 1.06 | 0.52 | 0.925 | 1.3 | 0.956 | 0.663 | 0.809 | 0.815 | 0.819 | 0.595 | 0.948

Source: the supplement of paper PMC10307832
